Measurements as given in patent US5679671A, “Amino acid derivative” (Eisai Co., Ltd., priority 1993, dated 1997).

How the values were obtained:
NEP = molecular target: T1, NEP (Rattus norvegicus, UniProt P07861); experiment: NEP inhibition activity (Experiment F-1); format: biochemical; design: membrane fraction prepared from rat renal cortex; from tissue; host or cells: rat renal cortex, membrane fraction (method of Booth and Kenny); conditions: rat renal cortex membrane fraction
T1 sequence (P07861 1-750): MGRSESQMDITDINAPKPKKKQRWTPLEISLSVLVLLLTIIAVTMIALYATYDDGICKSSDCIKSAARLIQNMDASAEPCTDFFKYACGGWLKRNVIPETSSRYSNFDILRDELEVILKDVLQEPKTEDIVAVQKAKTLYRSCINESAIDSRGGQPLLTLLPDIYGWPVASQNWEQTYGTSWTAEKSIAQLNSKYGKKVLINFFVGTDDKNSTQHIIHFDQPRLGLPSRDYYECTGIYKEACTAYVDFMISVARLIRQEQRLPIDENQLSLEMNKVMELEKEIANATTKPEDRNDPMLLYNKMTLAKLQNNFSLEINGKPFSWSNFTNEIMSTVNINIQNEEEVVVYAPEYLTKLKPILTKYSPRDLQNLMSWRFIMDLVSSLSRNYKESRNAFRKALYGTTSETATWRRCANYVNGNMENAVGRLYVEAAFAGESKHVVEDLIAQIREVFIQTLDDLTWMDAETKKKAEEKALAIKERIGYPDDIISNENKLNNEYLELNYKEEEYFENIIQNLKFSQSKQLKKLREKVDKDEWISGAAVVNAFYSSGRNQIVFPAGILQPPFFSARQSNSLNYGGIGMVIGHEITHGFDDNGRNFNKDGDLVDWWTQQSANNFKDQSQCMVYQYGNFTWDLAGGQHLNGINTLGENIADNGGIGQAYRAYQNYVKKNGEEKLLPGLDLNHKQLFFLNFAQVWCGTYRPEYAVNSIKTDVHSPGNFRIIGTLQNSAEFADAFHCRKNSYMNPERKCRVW
Protocol: As a source of the enzyme NEP, a membrane fraction prepared from rat renal cortex in accordance with the method of Booth and Kenny (A Rapid Method for the Purification of Microvilli from Rabbit Kidney., Andrew G. Booth and A. John Kenny, Biochem. j., 1974, 142, 575-581.) was employed. The NEP activity was determined in accordance with the method of Orlowsky and Wilk (Purification and Specificity of a Membrane-Bound Metalloendpeptidase from Bovine Pituitaries., Marian Orlowsky and Shrwin Wilk, Biochemistry, 1981, 20, 4942-4950.). Now the procedure will be briefly described.
As a substrate, benzoyl-glycyl-arginyl-arginyl-2-naphthylamide (benzoyl-Gly-Arg-Arg-2-naphthylamide (Nova Biochem, Switzerland)) was used. In the presence of an NEP enzyme preparation and excessive leucine aminopeptidase (sigma chemical Co., U.S.A.), the liberated naphthylamine was made to undergo color development with first garnet (Sigma chemical Co., U.S.A.), followed by the measurement of the absorbance at a wavelength of 540 nm.
(§1) With respect to the NEP inhibition activity and the ACE inhibition activity, the inhibitor was added to the assay systems of both enzyme activities as described above in such a manner as to give the final concentrations of 1, 3, 10, 30, 100, 300 and 1000 inhibition curves were prepared, and then the concentration at which 50% inhibition was achieved was taken as IC50.

ACE = molecular target: T2, ACE (Rattus norvegicus, UniProt P47820); experiment: ACE inhibition activity (Experiment F-1); format: biochemical; conditions: rat lung membrane fraction, pH 8.3
T2 construct: membrane fraction prepared from rat lung; from tissue; host or cells: rat lung, membrane fraction (method of Wu-Wong et al.)
T2 sequence (P47820 36-1313): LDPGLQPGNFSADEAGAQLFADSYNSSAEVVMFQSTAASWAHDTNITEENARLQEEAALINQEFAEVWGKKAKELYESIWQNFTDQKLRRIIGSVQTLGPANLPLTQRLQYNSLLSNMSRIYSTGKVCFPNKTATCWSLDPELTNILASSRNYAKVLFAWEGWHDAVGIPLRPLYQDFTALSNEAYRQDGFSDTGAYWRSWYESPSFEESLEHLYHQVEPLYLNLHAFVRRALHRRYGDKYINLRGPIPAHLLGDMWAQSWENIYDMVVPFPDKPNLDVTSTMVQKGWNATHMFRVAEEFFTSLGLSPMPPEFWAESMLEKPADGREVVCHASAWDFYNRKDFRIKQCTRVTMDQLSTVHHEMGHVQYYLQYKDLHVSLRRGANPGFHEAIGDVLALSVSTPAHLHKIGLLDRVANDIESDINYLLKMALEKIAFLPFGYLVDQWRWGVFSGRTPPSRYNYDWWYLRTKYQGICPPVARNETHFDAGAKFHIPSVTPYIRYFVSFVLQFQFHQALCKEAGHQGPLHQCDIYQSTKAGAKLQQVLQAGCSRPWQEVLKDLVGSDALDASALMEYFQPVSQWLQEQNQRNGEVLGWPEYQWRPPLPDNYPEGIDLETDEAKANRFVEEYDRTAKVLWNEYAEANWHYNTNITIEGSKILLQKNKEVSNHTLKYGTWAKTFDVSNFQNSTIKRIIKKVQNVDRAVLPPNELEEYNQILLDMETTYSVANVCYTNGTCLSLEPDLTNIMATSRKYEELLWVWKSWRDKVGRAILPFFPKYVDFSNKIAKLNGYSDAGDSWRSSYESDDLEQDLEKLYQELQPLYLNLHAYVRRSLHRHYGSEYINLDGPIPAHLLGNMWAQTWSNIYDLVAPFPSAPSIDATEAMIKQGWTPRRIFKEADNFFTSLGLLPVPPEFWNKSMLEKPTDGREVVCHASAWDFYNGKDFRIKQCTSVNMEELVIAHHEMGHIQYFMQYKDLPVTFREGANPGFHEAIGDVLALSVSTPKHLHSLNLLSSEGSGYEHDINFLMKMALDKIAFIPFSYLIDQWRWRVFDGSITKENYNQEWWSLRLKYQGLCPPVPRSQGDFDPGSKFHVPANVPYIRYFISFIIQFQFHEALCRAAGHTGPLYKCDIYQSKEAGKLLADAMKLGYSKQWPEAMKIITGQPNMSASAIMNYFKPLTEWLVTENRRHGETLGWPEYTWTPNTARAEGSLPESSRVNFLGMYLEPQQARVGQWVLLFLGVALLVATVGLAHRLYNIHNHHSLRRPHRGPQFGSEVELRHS
Protocol: As a source of the enzyme ACE, a membrane fraction prepared from rat lung in accordance with the method of Wu-Wong et al. (Characterization of Endthelin Converting Enzyme in Rat Lung., Jinshyum R. Wu-Wong, Gerald P. Budzik, Edward M, Devine and Terry J. Opgenorth, Biochem. Biophys. Res. Commun., 1990, 171, 1291-1296.) was used. The ACE activity was determined with the use of a modification (modified to a borate buffer pH 8.3) of the method of Cushman and Cheung (Spectrophotometric Assay and Properties of the Angiotensin-Converting Enzyme of Rabbit Lung., Cushman D. W. and Cheung H. S., 1971, 20, 1637-1648.). Now the procedure will be briefly described.
In the presence of ACE, the hippurate liberated from hippuryl-histidyl-leucine (Hippuryl-His-Leu (Peptide Institute Inc., Japan)) was extracted with ethyl acetate and then the absorbance was measured at a wavelength of 228 nm.
as §1

Row | Structure (SMILES) | IC50 (NEP) | IC50 (ACE)
1 | O=C(O)CNC(=O)[C@@H](CS)Cc1ccc2c(c1)OCO2 [Comp cpd. F-1, N[1oxo-2(S)-mercaptomethyl-3-(3,4-methylenedioxy-phenyl)propyl]glycine, reference compound] | 17.1 nM | 48 nM
2 | O=C(N[C@H]1CCC[C@H]2SC[C@@H](C(=O)O)N2C1=O)[C@@H](S)Cc1ccc(F)cc1 [Example F-14, [3R-[3α,6α(S*),9aβ]]-6[[(S)-1-Oxo-2-thio-3-(4-fluorophenyl)propyl]amino]-octahydro-5-oxothiazol [3,2-a]azepine-3-carboxylic acid] | 22.5 nM | 7.7 nM
3 | O=C(N[C@H]1CCC[C@H]2SC[C@@H](C(=O)O)N2C1=O)[C@@H](CS)Cc1ccccc1 [Example F-18, [3R-[3α,6α(S*),9aβ]]-6-[[(S)-1-Oxo-2-thiomethyl-3-phenylpropyl]amino]-octahydro-5-oxothiazol[3,2-a]-azepine-3-carboxylic acid] | 5.6 nM | 7 nM
4 | COc1ccc(C[C@H](S)C(=O)N[C@H]2CCC[C@H]3SC[C@@H](C(=O)O)N3C2=O)cc1 [Example F-19, [3R-[3α,6α(S*),9aβ]]-6-[[(S)-1-Oxo-2-thio-3-(4-methoxyphenyl)propyl]amino]-octahydro-5-oxothiazol-[3,2-a]azepine-3-carboxylic acid] | 104 nM | 13.5 nM
5 | O=C(N[C@H]1CCC[C@H]2SC[C@@H](C(=O)O)N2C1=O)[C@@H](S)Cc1ccc(-c2ccccc2)cc1 [Example F-20, [3R-[3α,6α(S*),9aβ]]-6-[[(S)-1-Oxo-2-thio-3-(1,4-biphenyl)propyl]amino]-octahydro-5-oxothiazol[3,2-a]azepine3-carboxylic acid] | 56.5 nM | 16 nM
6 | O=C(N[C@H]1CCC[C@H]2SC[C@@H](C(=O)O)N2C1=O)[C@@H](S)Cc1cccs1 [Example F-22, [3R-[3α,6α(S*),9aβ]]-6-[[(S)-1-Oxo-2-thio-3-(2-thienyl)propyl]amino]-octahydro-5-oxothiazol-[3,2-a]azepine-3-carboxylic acid] | 9 nM | 13 nM
7 | CC[C@@H](C)[C@H](S)C(=O)N[C@H]1CCC[C@H]2SC[C@@H](C(=O)O)N2C1=O [Example F-23, [3R-[3α,6α(S*),9aβ]]-6-[[(S, 3R)-1-Oxo-2-thio-3-methylpentylamino]-octahydro-5-oxothiazol-[3,2-a]azepine-3-carboxylic acid] | 120 nM | 8 nM
8 | CC[C@H](S)C(=O)N[C@H]1CCC[C@H]2SC[C@@H](C(=O)O)N2C1=O [Example F-24, [3R-[3α,6α(S*),9aβ]]-6-[(S)-1-Oxo-2-thiobutylamino]-octahydro-5-oxothiazol[3,2-a]azepine-3-carboxylic acid] | 8 nM | 13 nM
9 | CC(C)[C@H](S)C(=O)N[C@H]1CCC[C@H]2SC[C@@H](C(=O)O)N2C1=O [Example F-25, [3R-[3α,6α(S*),9aβ]]-6-[(S)-1-Oxo-2-thio-3-methylbutylamino]-octahydro-5-oxothiazol[3,2-a]azepine-3-carboxylic acid] | 265 nM | 9 nM
